In US8470534B2, “Methods of predicting resistance or sensitivity to therapies for cancer” (priority 2006, dated 2013):

Columns and labels:
[1] = tested on: MCF7 donor or siRb xenograft tumors; experiment: Nude mouse xenograft therapeutic study; type: in vivo, nude mice
Method: The xenograft model system is then utilized to test the response of RB-deficient tumors to CDDP therapy. Tumors are developed in the flanks of mice by injecting MCF7 donor or siRb cells into the flanks of mice and implanting a […] (E2) pellet into the back. When tumors reached 100-110 mm^3, mice received 5 mg/kg CDDP every 4 days for 5 courses.
To assess the role of RB in the therapeutic response of MCF7 cells in vivo, the xenograft model is again employed. Upon the attainment of tumors of approximately 100-120 mm^3, mice are deprived of estrogen and treated with Tam. […] (FIG. 4F). […] All tumors are weighed upon exclusion, and RB-deficient tumors are more than 3 times heavier than control tumors following Tam therapy (FIG. 4G).
Five- to 8-week-old female ovariectomized athymic nude mice are anesthetized, and an E2 pellet (1.7 mg/pellet, 90-day release) or placebo is surgically implanted in the back. Following implantation, 200 μl of a PBS- and phenol red-free Matrigel matrix basement membrane, solution (3:1) containing 2×10^6 cells is injected subcutaneously into the flank, or contralaterally where noted. Tumor volume is measured with calipers every 4 days using the equation V=0.52 (width)^2 ×(length). In the therapeutic studies, when tumor volume reaches 100-120 mm^3, animals are placed into 1 of 3 therapeutic groups (each group containing at least 6 animals): control animals retaining the estrogen pellet, antiestrogen-treated animals, or CDDP-treated animals. Animals in the antiestrogen treatment group are anesthetized, the estrogen pellet is surgically removed, and a Tam pellet (5 mg/pellet, 60-day release) implanted. The CDDP-treated animals receive 5 mg/kg CDDP injected i.p. on a q4dx5 schedule (every 4 days for 5 courses). All animals are injected i.p. with 150 mg/kg BrdU (Sigma-Aldrich) 1 hour prior to euthanization. Xenograft tumors are weighed and fixed in 10% neutral buffered formalin, paraffin embedded, and cut into 5-ÿm sections. For immunohistochemical staining, sections are deparaffinized in xylene and rehydrated through a graded series of ethanol/water solutions. A BrdU detection kit is utilized as recommended by the manufacturer. BrdU incorporation is scored in a blinded manner, and at least 500 cells per section are counted from several random fields.

[2] = tested on: MCF7, T47D, and Zr-75-1 cells; experiment: BrdU incorporation (cell-cycle checkpoint) after CDDP treatment; type: cell-based, human
Method: The RB and p53 tumor suppressors are known to be critical for induction of DNA damage checkpoints, and therapies inducing DNA damage are used as an additional line of treatment for ER-positive breast cancers resistant to hormonal therapy. Therefore, the role of these tumor suppressors in the response to therapeutic doses of DNA-damaging agents is investigated. Wild-type MCF7, T47D, and Zr-75-1 cells are treated with 0, 8, or 16 μM CDDP and labeled with BRDU to determine the effect of the agent on cell-cycle progression. […] To specifically probe the impact of RB in the response to DNA damage, T47D and Zr-75-1 polyclonal donor and siRb88 cells are utilized. […] To confirm these findings, MCF7 donor 1 and siRb28 cells are treated with either CDDP as described above or with 0, 2.5, or 5 Gy ionizing radiation (IR). […] To determine the long-term effect of DNA damage therapy upon proliferation, cell growth assays are performed wherein the RB-proficient and deficient MCF7 clones are plated at equal density and treated with 2.5 or […].
(§1) RB target gene upregulation is a prognostic indicator in human breast cancers. RB performs a myriad of functions, the most well understood being repression of the E2F family of transcription factors. To determine the specific influence of the E2F axis on bypassing therapy, an activator E2F is overexpressed in wild-type MCF7 cells. Specifically, cells are infected either with an adenovirus encoding E2F3 (ad-E2F3) or a control virus (Ad-LacZ) and are harvested 3 days after infection for immunoblot analysis of levels of known RB-E2F targets (FIG. 5A). […] As expected, no changes are detected in RB levels, and CDK4 serves as a loading control. In order to assess the response to therapeutic intervention, 3 days after infection Ad-E2F3- or AdLacZ-infected MCF7 cells are separated into 2 major treatment groups: hormone therapy and DNA damage therapy. The estrogen ablation group is then cultured in the absence of estrogen and in the presence of Tam and ICI as described above. Alternatively, the cells in the DNA damage therapy group are treated with 16 μM CDDP for 18 hours prior to washing or treatment with 5 Gy IR. Cells from both therapy groups are BrdU labeled, and the replicative fraction of treated cells is determined with respect to untreated control cells (FIG. 5B).
The MCF7, T47D, and Zr-75-1 cell lines are obtained from ATCC and propagated in DMEM containing 10% FS supplemented with 100 U/ml penicillin/streptomycin and 2 mM L-glutamine at 37° C. in air containing 5% CO2. […] Cells are infected with Ad-lacZ at a multiplicity of infection of 50, at which 95% of cells are infected (as determined by plaque assay in 293 cells) or with 2.7×10^11 virus particles/ml of Ad-E2F3 and cultured for 3 days prior to use. […]

[3] = tested on: MCF7, T47D, and Zr-75-1 cells; experiment: BrdU incorporation under hormone deprivation / antiestrogen (CDT, CDT/Tam, CDT/ICI); type: cell-based, human
Method: To understand the impact of RB deficiency on the response to hormone deprivation therapy, cells are cultured in CDT, CDT/Tam, or in the presence of pure antiestrogen, ICI182780 (CDT/ICI). Following treatment with these modalities, cells are labeled with BrdU to determine the influence of each agent on cell-cycle progression and the corresponding influence of RB knockdown on this response (FIG. 4B). These experiments are recapitulated in the polyclonal populations of T47D and Zr-75-1 donor and siRb88 cells (FIG. 4C). […] To elucidate the long-term growth effects of these therapies, cell proliferation assays are performed over 9 days. RB-proficient and -deficient MCF7 cells are seeded at equal densities and cultured in CDT/Tam (FIG. 4D). […] Similar results are evident in the same experiments with both T47D and Zr-75-1 RB-proficient and -deficient polyclonal pools (FIG. 4E).
as §1
To study the effect of estrogen depletion, cells are cultured for 72 hours in phenol red-free DMEM supplemented with 10% CDT serum with addition of 10^−9 M 4-HydroxyTam or 10^−6 M ICI where indicated. Cell growth assays are performed by trypsinizing cells and counting by trypan blue exclusion every 3 days.
Cells treated with IR are exposed to ^137Cs (dose rate: 0.67 Gy/min) at room temperature in tissue culture media. Culture with clinical grade CDDP for 18 hours is performed for all CDDP treatments. For all proliferation studies, cells are labeled with BrdU for 10 hours or 5 hours for LXSN/LXSN-p53dd infected cells, and BrdU immunofluorescence is performed as previously described. All BrdU results are expressed as a percentage of untreated control cells set to 100%, unless otherwise noted.

| Compound | tumor response during treatment, RB-deficient tumors ([1]; RB-deficient MCF7 tumors versus control tumors, 5 mg/kg CDDP every 4 days for 5 courses) | tumor response during treatment ([1]; RB-proficient and RB-deficient MCF7 tumors, 5 mg/kg CDDP i.p. every 4 days for 5 courses) | tumor weight upon excision, tumors lacking RB relative to control tumors ([1]; following CDDP therapy) | cell-cycle arrest (replicative fraction, BrdU) ([2]; Ad-E2F3-infected versus control infected MCF7 cells, 16 μM CDDP for 18 hours) | DNA damage checkpoint (BrdU labeling) ([2]; MCF7 siRb28 versus donor 1 cells, CDDP 0, 8, or 16 μM) | BrdU incorporation following DNA damage ([2]; RB-deficient (siRb88) T47D and Zr-75-1 cells, 0, 8, or 16 μM CDDP) | effect on cell-cycle progression (BrdU labeling) ([2]; wild-type RB-positive MCF7, T47D, Zr-75-1 cells, 0, 8, or 16 μM CDDP for 18 hours, BrdU 10 hours) | cell-cycle arrest (replicative fraction, BrdU) ([3]; Ad-E2F3-infected versus control infected MCF7 cells, absence of estrogen plus agent) | cell-cycle inhibition by the agent (BrdU labeling) ([3]; RB-depleted cells (MCF7 siRb28, T47D and Zr-75-1 siRb88), CDT serum plus agent, 3 days) | cell-cycle progression (BrdU labeling) ([3]; cells harboring functional RB (MCF7, T47D, Zr-75-1 donor), CDT serum plus agent, 3 days, 10^−9 M 4-HydroxyTam or 10^−6 M ICI) |
| --- | --- | --- | --- | --- | --- | --- | --- | --- | --- | --- |
| N.N.[Cl][Pt][Cl] [CDDP, cis-diamminedichloroplatinum II] | regressed more rapidly | both tumor types regressed | less than half as much as control tumors | significantly reduced levels of cell-cycle arrest | RB deficiency promotes bypass of the DNA damage checkpoints | continue to incorporate BrdU efficiently | dose-dependent cell-cycle checkpoint |  |  |  |
| C[C@]12CC[C@@H]3c4ccc(O)cc4C[C@@H](CCCCCCCCC[S+]([O-])CCCC(F)(F)C(F)(F)F)[C@H]3[C@@H]1CC[C@@H]2O (stereo partly shown) [ICI182780] |  |  |  |  |  |  |  | significantly reduced levels of cell-cycle arrest | significantly reduced | elicit cell-cycle inhibition |
